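Where inhibition never reached the appropriate level, the endpoint shown equals the highest concentration tested. Otherwise, values were interpolated linearly from a five-concentration, 48-hour dose response in 96-well plates. TGI marks complete inhibition of growth.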
Key:
Test in all cases: NCI anticancer screen, dose series, 48 h
MDA-MB-231 breast = test system: MDA-MB-231 breast
SN12C renal = test system: SN12C renal
HS 578T breast = test system: HS 578T breast
SF-295 CNS = test system: SF-295 CNS
U251 CNS = test system: U251 CNS
TK-10 renal = test system: TK-10 renal
OVCAR-8 ovarian = test system: OVCAR-8 ovarian
SR leukemia = test system: SR leukemia
NCI-H23 lung = test system: NCI-H23 lung
COLO 205 colon = test system: COLO 205 colon
HCT-15 colon = test system: HCT-15 colon
A549 NSCLC = test system: A549 NSCLC
M14 melanoma = test system: M14 melanoma
HOP-62 NSCLC = test system: HOP-62 NSCLC
HT29 colon = test system: HT29 colon
SK-OV-3 ovarian = test system: SK-OV-3 ovarian
SNB-75 CNS = test system: SNB-75 CNS
MALME-3M melanoma = test system: MALME-3M melanoma
RXF 393 renal = test system: RXF 393 renal
HL-60(TB) leukemia = test system: HL-60(TB) leukemia
PC-3 prostate = test system: PC-3 prostate
SK-MEL-28 melanoma = test system: SK-MEL-28 melanoma
LOX IMVI melanoma = test system: LOX IMVI melanoma
MOLT-4 leukemia = test system: MOLT-4 leukemia
BT-549 breast = test system: BT-549 breast
NCI/ADR-RES ovarian = test system: NCI/ADR-RES ovarian
SF-268 CNS = test system: SF-268 CNS
MDA-N = test system: MDA-N
SNB-19 CNS = test system: SNB-19 CNS
UACC-62 melanoma = test system: UACC-62 melanoma
KM12 colon = test system: KM12 colon
OVCAR-3 ovarian = test system: OVCAR-3 ovarian
T-47D breast = test system: T-47D breast
HCT-116 colon = test system: HCT-116 colon
MCF7 breast = test system: MCF7 breast
CAKI-1 renal = test system: CAKI-1 renal
OVCAR-5 ovarian = test system: OVCAR-5 ovarian
SF-539 CNS = test system: SF-539 CNS
EKVX NSCLC = test system: EKVX NSCLC
MDA-MB-435 = test system: MDA-MB-435
OVCAR-4 ovarian = test system: OVCAR-4 ovarian
RPMI-8226 leukemia = test system: RPMI-8226 leukemia
SW-620 colon = test system: SW-620 colon
IGROV1 ovarian = test system: IGROV1 ovarian
K-562 leukemia = test system: K-562 leukemia
SK-MEL-5 melanoma = test system: SK-MEL-5 melanoma
ACHN renal = test system: ACHN renal
DU-145 prostate = test system: DU-145 prostate
NCI-H460 lung = test system: NCI-H460 lung
CCRF-CEM leukemia = test system: CCRF-CEM leukemia
UO-31 renal = test system: UO-31 renal
UACC-257 melanoma = test system: UACC-257 melanoma
SK-MEL-2 melanoma = test system: SK-MEL-2 melanoma
NCI-H522 lung = test system: NCI-H522 lung
HOP-92 NSCLC = test system: HOP-92 NSCLC
NCI-H226 lung = test system: NCI-H226 lung
786-0 renal = test system: 786-0 renal
A498 renal = test system: A498 renal
HCC-2998 colon = test system: HCC-2998 colon

Cc1ccnn1CCc1ccc(Cl)cc1Cl
TGI (MDA-MB-231 breast): > 100 µM | TGI (SN12C renal): > 100 µM | TGI (HS 578T breast): > 100 µM | TGI (SF-295 CNS): 52.9 µM | TGI (U251 CNS): > 100 µM | TGI (TK-10 renal): 48.1 µM | TGI (OVCAR-8 ovarian): > 100 µM | TGI (SR leukemia): > 100 µM | TGI (NCI-H23 lung): > 100 µM | TGI (COLO 205 colon): > 100 µM | TGI (HCT-15 colon): > 100 µM | TGI (A549 NSCLC): > 100 µM | TGI (M14 melanoma): > 100 µM | TGI (HOP-62 NSCLC): 32.5 µM | TGI (HT29 colon): > 100 µM | TGI (SK-OV-3 ovarian): > 100 µM | TGI (SNB-75 CNS): > 100 µM | TGI (MALME-3M melanoma): > 100 µM | TGI (RXF 393 renal): 82.9 µM | TGI (HL-60(TB) leukemia): 42.4 µM | TGI (PC-3 prostate): > 100 µM | TGI (SK-MEL-28 melanoma): > 100 µM | TGI (LOX IMVI melanoma): > 100 µM | TGI (MOLT-4 leukemia): 56.6 µM | TGI (BT-549 breast): 31.3 µM | TGI (NCI/ADR-RES ovarian): > 100 µM | TGI (SF-268 CNS): > 100 µM | TGI (MDA-N): > 100 µM | TGI (SNB-19 CNS): > 100 µM | TGI (UACC-62 melanoma): 29.1 µM | TGI (KM12 colon): > 100 µM | TGI (OVCAR-3 ovarian): 45.3 µM | TGI (T-47D breast): > 100 µM | TGI (HCT-116 colon): > 100 µM | TGI (MCF7 breast): > 100 µM | TGI (CAKI-1 renal): > 100 µM | TGI (OVCAR-5 ovarian): > 100 µM | TGI (SF-539 CNS): 49.6 µM | TGI (EKVX NSCLC): 20.7 µM | TGI (MDA-MB-435): > 100 µM | TGI (OVCAR-4 ovarian): > 100 µM | TGI (RPMI-8226 leukemia): 38.2 µM | TGI (SW-620 colon): > 100 µM | TGI (IGROV1 ovarian): > 100 µM | TGI (K-562 leukemia): > 100 µM | TGI (SK-MEL-5 melanoma): 37.7 µM | TGI (ACHN renal): > 100 µM | TGI (DU-145 prostate): > 100 µM | TGI (NCI-H460 lung): > 100 µM | TGI (CCRF-CEM leukemia): > 100 µM | TGI (UO-31 renal): 46.3 µM | TGI (UACC-257 melanoma): > 100 µM

O=C(c1ccsc1)c1nccc2c1cnc1ccccc12
TGI (MDA-MB-231 breast): > 100 µM | TGI (SN12C renal): > 100 µM | TGI (HS 578T breast): 70.6 µM | TGI (SF-295 CNS): > 100 µM | TGI (U251 CNS): > 100 µM | TGI (TK-10 renal): > 100 µM | TGI (OVCAR-8 ovarian): > 100 µM | TGI (NCI-H23 lung): > 100 µM | TGI (COLO 205 colon): > 100 µM | TGI (HCT-15 colon): > 100 µM | TGI (A549 NSCLC): > 100 µM | TGI (M14 melanoma): > 100 µM | TGI (HOP-62 NSCLC): > 100 µM | TGI (HT29 colon): > 100 µM | TGI (SK-OV-3 ovarian): > 100 µM | TGI (SNB-75 CNS): 88.2 µM | TGI (MALME-3M melanoma): > 100 µM | TGI (RXF 393 renal): > 100 µM | TGI (HL-60(TB) leukemia): 6.65 µM | TGI (PC-3 prostate): > 100 µM | TGI (SK-MEL-28 melanoma): > 100 µM | TGI (SK-MEL-2 melanoma): > 100 µM | TGI (LOX IMVI melanoma): > 100 µM | TGI (MOLT-4 leukemia): 24.3 µM | TGI (BT-549 breast): > 100 µM | TGI (NCI/ADR-RES ovarian): > 100 µM | TGI (SF-268 CNS): > 100 µM | TGI (MDA-N): > 100 µM | TGI (SNB-19 CNS): > 100 µM | TGI (UACC-62 melanoma): > 100 µM | TGI (KM12 colon): > 100 µM | TGI (NCI-H522 lung): 62 µM | TGI (OVCAR-3 ovarian): > 100 µM | TGI (HOP-92 NSCLC): > 100 µM | TGI (T-47D breast): > 100 µM | TGI (HCT-116 colon): > 100 µM | TGI (MCF7 breast): > 100 µM | TGI (CAKI-1 renal): > 100 µM | TGI (NCI-H226 lung): > 100 µM | TGI (OVCAR-5 ovarian): > 100 µM | TGI (SF-539 CNS): > 100 µM | TGI (EKVX NSCLC): 88.4 µM | TGI (MDA-MB-435): > 100 µM | TGI (OVCAR-4 ovarian): > 100 µM | TGI (RPMI-8226 leukemia): > 100 µM | TGI (SW-620 colon): > 100 µM | TGI (IGROV1 ovarian): 17.1 µM | TGI (SK-MEL-5 melanoma): > 100 µM | TGI (786-0 renal): > 100 µM | TGI (ACHN renal): > 100 µM | TGI (DU-145 prostate): > 100 µM | TGI (NCI-H460 lung): > 100 µM | TGI (CCRF-CEM leukemia): > 100 µM | TGI (A498 renal): > 100 µM | TGI (UO-31 renal): > 100 µM | TGI (UACC-257 melanoma): > 100 µM

NNC(=O)c1cc(Cl)ccc1NC(=O)C12CC3CC(CC(C3)C1)C2
TGI (MDA-MB-231 breast): > 100 µM | TGI (SN12C renal): 62.2 µM | TGI (HS 578T breast): > 100 µM | TGI (SF-295 CNS): > 100 µM | TGI (U251 CNS): > 100 µM | TGI (TK-10 renal): > 100 µM | TGI (OVCAR-8 ovarian): > 100 µM | TGI (SR leukemia): 88.3 µM | TGI (NCI-H23 lung): > 100 µM | TGI (COLO 205 colon): > 100 µM | TGI (HCT-15 colon): > 100 µM | TGI (A549 NSCLC): 48.2 µM | TGI (M14 melanoma): 31.8 µM | TGI (HOP-62 NSCLC): > 100 µM | TGI (HT29 colon): 48 µM | TGI (SK-OV-3 ovarian): > 100 µM | TGI (SNB-75 CNS): > 100 µM | TGI (MALME-3M melanoma): 68.6 µM | TGI (RXF 393 renal): > 100 µM | TGI (HL-60(TB) leukemia): 94.2 µM | TGI (PC-3 prostate): > 100 µM | TGI (SK-MEL-28 melanoma): > 100 µM | TGI (SK-MEL-2 melanoma): > 100 µM | TGI (LOX IMVI melanoma): > 100 µM | TGI (MOLT-4 leukemia): > 100 µM | TGI (BT-549 breast): > 100 µM | TGI (NCI/ADR-RES ovarian): > 100 µM | TGI (SF-268 CNS): 89.5 µM | TGI (MDA-N): 70.5 µM | TGI (SNB-19 CNS): 43.1 µM | TGI (UACC-62 melanoma): > 100 µM | TGI (KM12 colon): > 100 µM | TGI (NCI-H522 lung): > 100 µM | TGI (OVCAR-3 ovarian): > 100 µM | TGI (HOP-92 NSCLC): > 100 µM | TGI (T-47D breast): > 100 µM | TGI (HCT-116 colon): 85.5 µM | TGI (MCF7 breast): > 100 µM | TGI (CAKI-1 renal): > 100 µM | TGI (NCI-H226 lung): > 100 µM | TGI (OVCAR-5 ovarian): 53.9 µM | TGI (SF-539 CNS): > 100 µM | TGI (MDA-MB-435): > 100 µM | TGI (HCC-2998 colon): 65 µM | TGI (OVCAR-4 ovarian): > 100 µM | TGI (RPMI-8226 leukemia): 69.7 µM | TGI (SW-620 colon): > 100 µM | TGI (IGROV1 ovarian): > 100 µM | TGI (K-562 leukemia): > 100 µM | TGI (SK-MEL-5 melanoma): 76.5 µM | TGI (786-0 renal): 79.9 µM | TGI (ACHN renal): 77.8 µM | TGI (DU-145 prostate): > 100 µM | TGI (NCI-H460 lung): > 100 µM | TGI (UO-31 renal): 45.4 µM | TGI (UACC-257 melanoma): 96.2 µM

Reference: PubChem BioAssay (NCI)
